Key:
hFPR1 [1] = target: T1, hFPR1 (Homo sapiens, UniProt P21462); test: [Ca2+]i mobilization in FlpIn-CHO cells stably expressing hFPR1; type: cell-based; set-up: Calcium Rmax: unit not given here
T1 construct: expressed in transfected cells
T1 sequence (P21462 1-350): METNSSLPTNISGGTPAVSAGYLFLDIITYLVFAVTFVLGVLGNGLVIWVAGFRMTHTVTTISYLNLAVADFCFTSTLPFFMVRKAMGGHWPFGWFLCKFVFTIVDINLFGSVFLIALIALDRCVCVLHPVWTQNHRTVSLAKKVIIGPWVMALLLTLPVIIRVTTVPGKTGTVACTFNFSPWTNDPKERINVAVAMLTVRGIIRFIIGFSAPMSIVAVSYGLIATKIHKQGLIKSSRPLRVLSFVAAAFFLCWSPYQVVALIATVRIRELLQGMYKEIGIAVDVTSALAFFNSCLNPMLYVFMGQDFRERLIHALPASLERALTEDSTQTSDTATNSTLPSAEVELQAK
Text: (§1) cDNDA construct and generation of stable cell lines: cDNA in pcDNA3.1^+ encoding the human formyl peptide receptors (FPR) subtypes, hFPR1, hFPR2 and hFPR3 was obtained from Invitrogen. The sequences for 3 hFPR receptors were amplified by PCR and cloned into the Gateway entry vector, pDONR202™, using the BP clonase enzyme mix, according to the manufactures' instructions (Invitrogen Inc, Carlsbad, Calif., USA). All hFPR receptors constructs in pDONR201™ were subsequently transfected into the pEF5/FRT/V5/dest vector using the LR clonase enzyme mix (Invitrogen). Receptor constructs (pEF5/FRT/V5/dest) were used to transfect FIp-In CHO cells as described previously (Valant C et al., PNAS, 2014). Cells were selected using 500 μg/mL hydromycin to generate cell lines stably expressing each receptor construct. Cells were maintained and cultured in high glucose DMEM supplemented with 10% FBS, 16 mM HEPES and 500 μg/mL hydromycin at 37° C. under a humidified atmosphere containing 5% CO2.
(§2) In the various assays described below, cells were plated into 96-well transparent cell culture plates at 4×10^4 cells per well, cultured overnight in serum-free media at 37° C. in 5% CO2.
Intracellular calcium mobilization: Intracellular calcium mobilization was assayed as described previously (Keov, P et al., 2014). Briefly, cells were washed once using HEPES buffered saline (HBS) solution [150 mM NaCl, 2.2 mM CaCl2, 2.6 mM KCl, 1.2 mM MgCl2, 10 mM HEPEs, 10 mM D-Glucose, 0.5% (w/v) bovine serum albumin (BSA) and 4 mM probenecid] at pH 7.4, then treated with Fluo-4-AM (1 μM, in HBS/BSA/probenecid) for 60 min at 37° C. in 5% CO2 in the dark. Cells were then further washed and placed in HBS/BSA/probenecid solution for ligation addition and assay using the FLEXstation 3 plate reader (Molecular Devices, Sunnyvale, Calif.). For all experiments, peak change in fluorescence signal was normalized to the cellular response to 100 μM ATP, which was used as an internal positive control.
(§3) Data analysis: All data were analysed using GraphPad Prism 6.0 (GraphPad Software, San Deigo, Calif., USA). Where appropriate, concentration-response curves were fitted to derive the maximal agonist effect (Emax), and the ligand potency estimate (pEC50), where Emax is the maximal possible response of the system (not the agonist), basal is the basal level of response in the absence of agonist, and pEC50 is the negative logarithm of the agonist concentration that gives a response halfway between Emax and basal.
In the present study, FIp-IN CHO cells and Gateway plasmid were obtained from Invitrogen Inc (Carlsbad, Calif., USA). The sequences for all 3 known human FPRs (hFPR1, hFPR2 and hFPR3) were amplified by PCR and cloned into the Gateway entry vector, pDONR202TM, using the BP clonase enzyme mix, according to the manufacturers' instructions. The hFPR pDONR201TM constructs were subsequently transfected into the pEF5/FRT/V5/dest vector using the LR clonase enzyme mix (Invitrogen). Receptor constructs (pEF5/FRT/V5/dest) were used to transfect FIp-IN CHO cells, as described previously (Valant et al. 2014). Cells were selected using 500 μg/mL hydromycin to generate cell lines stably expressing each human receptor construct. Cells were maintained and cultured in high glucose Dulbecco's modified eagle medium (DMEM) supplemented with 10% fetal bovine serum (FBS, from JRH Biosciences, Lenexa, Kans., USA) and 500 μg/mL hydromycin B (Invitrogen Inc) at 37° C. under a humidified atmosphere containing 5% CO2. Cell were plated into 96-well transparent cell culture plates at 4×10^4 cells per well, cultured overnight in serum-free media at 37° C. in 5% CO2.
(ii) Intracellular Ca2+ mobilization: Intracellular Ca2+ mobilization was determined in stably-transfected recombinant hFPR CHO cells, as described previously (Valant et al. 2014).

hFPR1 [2] = target: T1, hFPR1; test: ERK1/2 phosphorylation (AlphaScreen SureFire) in hFPR1-FlpIn-CHO cells; type: cell-based
Text: as §1, §2
Measurement of extracellular signal regulated kinase 1 and 2 phosphorylation (pERK1/2): Initial ERK1/2 phosphorylation at Thr202/Tyr204 time-course experiments were performed to determine the time at which ERK1/2 phosphorylation was maximal after stimulation by each agonist. Cells were seeded onto transparent 96-well cell culture plates at 4×10^4 cells per well. After 6 h, cells were washed once with PBS, and then incubated in serum-free DMEM overnight, to allow FBS-stimulated phosphorylated ERK1/2 levels to subside. […] 10% (v/v) FBS was used as a positive control, with vehicle controls also included. The reaction was terminated by removal of study drugs and lysis of cells with 100 μL of SureFire lysis buffer (TGR Biosciences). Cell were lysed in SureFire lysis buffer and transferred to 384-well opaque proxiplates. Under low-light conditions, a 1:120 (v:v) dilution of AlphaScreen beads (both acceptor and donor):Surefire reaction buffer was prepared, which was mixed with the activation buffer in a ratio of 6:1 (v:v), respectively. Plates were incubated in the dark at 37° C. for 1 h before the fluorescence signal was measured by a Fusion-α plate reader (PerkinElmer Life and Analytical Sciences, Foster city, CA, USA) with standard AlphaScreen settings. Data were normalized to the maximal response elicited by 10% (v/v) FBS at the same time point.
Receptor mediated pERK1/2 levels were determined using the AlphaScreen™ ERK1/2 SureFire™ kit, as described previously (Keov, P et al., 2014). For all experiments, 10% FBS was used as internal positive control to stimulate pERK1/2, and which the maximum responses were used for normalization of data, whilst vehicle was used as negative control.
as §3
In the present study, FIp-IN CHO cells and Gateway plasmid were obtained from Invitrogen Inc (Carlsbad, Calif., USA). The sequences for all 3 known human FPRs (hFPR1, hFPR2 and hFPR3) were amplified by PCR and cloned into the Gateway entry vector, pDONR202TM, using the BP clonase enzyme mix, according to the manufacturers' instructions. The hFPR pDONR201TM constructs were subsequently transfected into the pEF5/FRT/V5/dest vector using the LR clonase enzyme mix (Invitrogen).

hFPR1 [3] = target: T1, hFPR1; test: Quantification of biased agonism (operational model) at hFPR1 in CHO cells; type: cell-based; conditions: Table 9
Text: To quantify biased agonism mediated by each agonist across the various pathways ([Ca^2+], mobilization, pERK1/2, Akt1/2/3 and inhibition of cAMP accumulation), agonist concentration-response curves were refitted using the operation model normalized to the transduction ratio of a reference agonist (in this case, BIDI-002) as described previously (Stewart G D et al., 2009). Under these conditions, if the test agonist and the reference agonist activate the two pathways through a common receptor conformation, the log [bias factor] should be 0.0 (or bias factor different from 1.0), irrespective of differences in response amplification between pathways. In contrast, significant deviation of log [bias factor] from 0.0 (or bias factor different from 1.0) indicates the involvement of distinct conformations for the different agonists. All affinities, potencies, efficacies, and cooperativity parameters were estimated as logarithms (Christopoulos, 1998). Results are expressed as means±S.E. unless otherwise stated. Statistical analyses were by Student's t test, or one-way ANOVA followed by Dunnett's Comparison or Tukey's post-hoc test, as appropriate. Values of p<0.05 were considered statistically significant.
A “transduction ratio” is firstly derived for each response (τ/KA, where τ represents efficacy, and KA affinity, of the agonist for each GPCR conformational state), extracted from each concentration-response curve. “Bias factors” (ΔΔ(τ/KA)) were then calculated by normalizing the transduction ratio to a reference ligand (in this case, Cmpd43) and reference pathway, which here was Akt1/2/3(Thr308) phosphorylation. Lastly, bias factors were plotted on a ‘web of bias’ to visualize the potential for biased agonism. […] Under these conditions, if the test agonist and the reference agonist activate the two pathways through a common receptor conformation, the log [bias factor] should be 0.0 (i.e. the bias factor 1.0), irrespective of differences in response amplification between pathways. In contrast, significant deviation of log [bias factor] away from 0.0 (i.e. where the bias factor is different to 1.0) indicates the involvement of distinct conformations for the different agonists. All affinities, potencies, efficacies, and cooperativity parameters were estimated as logarithms (Kenakin et al. 2012).
Five signaling pathways were examined, namely pERK1/2-phosphorylation, Akt1/2/3(Ser473)-phosphorylation, Akt1(Thr308)-phosphorylation, increases in Ca2+i and inhibition of forskolin-induced cAMP accumulation. An operational model of agonism was fitted to each concentration-response curve to estimate a transduction ratio (τ/KA) for each agonist, at each pathway assessed, as described (FIG. 21B) (Kenakin et al. 2012). Transduction ratios were normalized to a reference agonist (Cmpd43) and a reference pathway (Akt1/2/3(Thr308)-phosphorylation), generating bias factors and therefore allowing quantitative cross-pathway comparison for each agonist.

[4] = Plasma levels and pharmacokinetics in mice; type: in vivo, mouse; conditions: mouse, in vivo; Table 9; mice
[5] = Table 10, receptor not given, ND = Not detectable
[6] = Table 10, receptor not given, values of 10394/10396 equal the hFPR1 values of Table 9
[7] = Table 10, receptor not given, values of 10394/10396 equal the hFPR1 values of Table 9, read-out: ERK pEC50 (converted)
[8] = Table 10, receptor not given, ND = Not detectable, read-out: Calcium pEC50 (converted)

Row | Compound | Calcium Rmax (hFPR1 [1]; [5]) | ERK Rmax (hFPR1 [2]; Table 10, receptor not given) | ERK pEC50 (hFPR1 [2]; [6]) | EC50 (hFPR1 [2]; [7]) | further results
1 | COc1cccc(Cc2cc(C)nn(C(C)C(=O)Nc3ccc(Cl)cc3)c2=O)c1 (stereo not shown) [MIPS008744] | 20 ± 5 | 95 ± 5 | 5.47 ± 0.12 | – | –
2 | COc1cccc(Cc2cc(C)nn(C(C)C(=O)Nc3cccc(F)c3)c2=O)c1 (stereo not shown) [MIPS-0008745] | – | 50 ± 4 | 5.12 ± 0.38 | – | –
3 | COc1cccc(Cc2cc(C)nn(C(C)C(=O)Nc3ccc(F)cc3)c2=O)c1 (stereo not shown) [MIPS-0008749] | – | 57 ± 2 | 5.07 ± 0.18 | – | –
4 | COc1cccc(Cc2cc(C)nn(C(C)C(=O)Nc3ccc4c(c3)OCO4)c2=O)c1 (stereo not shown) [MIPS-0008750] | 26 ± 6 | 74 ± 7 | – | 5750 nM | –
5 | COc1ccc(Cc2cc(C)nn(C(C)C(=O)Nc3ccc(Br)cc3)c2=O)cc1 (stereo not shown) [MIPS-0008853] | 26 ± 6 | 81 ± 6 | 5.58 ± 0.14 | – | –
6 | COc1ccccc1Cc1cc(C)nn(C(C)C(=O)Nc2ccc(Br)cc2)c1=O (stereo not shown) [MIPS-0008854] | 26 ± 9 | 76 ± 3 | 6.07 ± 0.11 | – | –
7 | COc1cccc(Cc2cc(C)nn(C(C)C(=O)Nc3ccc4c(c3)OCO4)c2=O)c1 (stereo not shown) [MIPS-0008856] | 19 ± 3 | 64 ± 4 | – | 12600 nM | –
8 | Cc1cc(Cc2ccc(F)cc2)c(=O)n(C(C)C(=O)Nc2ccc(Br)cc2)n1 (stereo not shown) [MIPS-0008857] | 5 ± 1 | 89 ± 1 | 5.74 ± 0.13 | – | –
9 | Cc1cc(Cc2ccccc2F)c(=O)n(C(C)C(=O)Nc2ccc(Br)cc2)n1 (stereo not shown) [MIPS-0008858] | 8 ± 2 | 91 ± 8 | 5.75 ± 0.12 | – | –
10 | Cc1cc(Cc2cccc(F)c2)c(=O)n(C(C)C(=O)Nc2ccc(Br)cc2)n1 (stereo not shown) [MIPS-0008859] | 18 ± 3 | 93 ± 7 | 5.68 ± 16 | – | –
11 | COc1ccc(OC)c(Cc2cc(C)nn(CC(=O)Nc3ccc(Cl)cc3)c2=O)c1 [MIPS-0010384] | 19 ± 2 | 77 ± 3 | 5.00 ± 0.37 | – | EC50 (hFPR1 [1]; [8]): 6.03 µM
12 | COc1ccccc1Cc1cc(C)nn(CC(=O)Nc2ccc(Cl)cc2)c1=O [MIPS-0010392] | 17 ± 3 | 81 ± 2 | 5.91 ± 0.13 | – | EC50 (hFPR1 [1]; [8]): 18.2 µM
13 | COc1cccc(Cc2cc(C)nn(Cc3ccc(Cl)cc3)c2=O)c1OC [MIPS-0010394] | 38 ± 2 | 82 ± 5 | – | 170 nM | EC50 (hFPR1 [1]; Table 9, read-out: potency (pEC50) Ca^2+i, hFPR1-FlpInCHO cells in vitro (converted)): 0.407 µM; EC50 (hFPR1 [1]; [8]): 0.407 µM; EC50 (hFPR1 [2]; Table 9, read-out: potency (pEC50) pERK1/2, hFPR1-FlpInCHO cells in vitro (converted)): 170 nM; Bias (away from Ca2+i), hFPR1-FlpInCHO cells in vitro (hFPR1 [3]): Slight; Tmax [4]: 18 min; half-life [4]: 570 min
14 | Cc1cc(Cc2ccccn2)c(=O)n(CC(=O)Nc2ccc(Cl)cc2)n1 [MIPS-0010397] | 18 ± 8 | 74 ± 3 | – | 1020 nM | –

The next lines start with results.

Row | Calcium Rmax (hFPR1 [1]; [5]) | ERK Rmax (hFPR1 [2]; Table 10, receptor not given) | ERK pEC50 (hFPR1 [2]; [6]) | EC50 (hFPR1 [2]; [7]) | Compound | further results
15 | – | 79 ± 9 | 5.30 ± 0.12 | – | CCc1ccc(NC(=O)Cn2nc(C)cc(Cc3ccccc3OC)c2=O)cc1 [MIPS-0014051] | –
16 | 13 ± 3 | 64 ± 6 | 5.10 ± 0.23 | – | COc1ccc(NC(=O)Cn2nc(C)cc(Cc3ccccc3OC)c2=O)cc1 [MIPS-0014052] | –
17 | – | 78 ± 13 | – | 1910 nM | Cc1cc(Cc2cccc3c2OCCO3)c(=O)n(CC(=O)Nc2ccc(Cl)cc2)n1 [MIPS-0014053] | –
18 | 11 ± 2 | 94 ± 11 | – | 1780 nM | COc1cccc(Cc2cc(C)nn(CC(=O)Nc3ccc(Cl)cc3)c2=O)n1 [MIPS-0014055] | –
19 | 45 ± 10 | 91 ± 4 | – | 603 nM | Cc1cc(Cc2ccccn2)c(=O)n(CC(=O)Nc2ccc(Cl)cc2)n1 [MIPS-0014057] | EC50 (hFPR1 [1]; [8]): 4.57 µM
20 | 32 ± 1 | 87 ± 1 | – | 1150 nM | COc1ccccc1Cc1cc(C)nn(CC(=O)Nc2ccc(C)cc2)c1=O [MIPS-0014058] | EC50 (hFPR1 [1]; [8]): 5.01 µM
21 | 48 ± 7 | 78 ± 2 | – | 2630 nM | COc1ccc(NC(=O)Cn2nc(C)cc(Cc3c(OC)cccc3OC)c2=O)cc1 [MIPS-0014071] | EC50 (hFPR1 [1]; [8]): 2.82 µM

— patent publication US10328075B2, “Method of treatment and compounds for use therein” (Baker Heart and Diabetes Institute, priority 2015, dated 2019)
